Test results from the NIST ThermoML archive (doi:10.1021/je600554h).

Test: xn = mol fraction of the nth substance listed
Conditions: 100 kPa, Liquid; for viscosity: Capillary tube (Ostwald / Ubbelohde) method

COC(C)(C)C [2-methoxy-2-methylpropane] + CCCCCCCC
Conditions	mass density [kg/m3]	viscosity [mPa·s]
273.15 K, x1 = 0.1019	–	0.685
273.15 K, x1 = 0.1059	721.15	–
273.15 K, x1 = 0.2123	724.203	–
273.15 K, x1 = 0.2189	–	0.651
273.15 K, x1 = 0.3019	727.065	–
273.15 K, x1 = 0.3026	–	0.622
273.15 K, x1 = 0.4029	–	0.597
273.15 K, x1 = 0.4099	730.835	–
273.15 K, x1 = 0.4995	–	0.57
273.15 K, x1 = 0.5053	734.583	–
273.15 K, x1 = 0.6005	738.614	–
273.15 K, x1 = 0.6099	–	0.549
273.15 K, x1 = 0.6934	742.992	–
273.15 K, x1 = 0.7072	–	0.525
273.15 K, x1 = 0.7967	748.318	–
273.15 K, x1 = 0.7981	–	0.494
273.15 K, x1 = 0.8941	–	0.472
273.15 K, x1 = 0.8975	754.329	–
278.15 K, x1 = 0.1019	–	0.638
278.15 K, x1 = 0.1059	717.106	–
278.15 K, x1 = 0.2123	720.082	–
278.15 K, x1 = 0.2189	–	0.607
278.15 K, x1 = 0.3019	722.866	–
278.15 K, x1 = 0.3026	–	0.583
278.15 K, x1 = 0.4029	–	0.559
278.15 K, x1 = 0.4099	726.533	–
278.15 K, x1 = 0.4995	–	0.534
278.15 K, x1 = 0.5053	730.183	–
278.15 K, x1 = 0.6005	734.106	–
278.15 K, x1 = 0.6099	–	0.514
278.15 K, x1 = 0.6934	738.371	–
278.15 K, x1 = 0.7072	–	0.492
278.15 K, x1 = 0.7967	743.56	–
278.15 K, x1 = 0.7981	–	0.462
278.15 K, x1 = 0.8941	–	0.442
278.15 K, x1 = 0.8975	749.42	–
283.15 K, x1 = 0.1019	–	0.597
283.15 K, x1 = 0.1059	713.046	–
283.15 K, x1 = 0.2123	715.938	–
283.15 K, x1 = 0.2189	–	0.568
283.15 K, x1 = 0.3019	718.644	–
283.15 K, x1 = 0.3026	–	0.545
283.15 K, x1 = 0.4029	–	0.523
283.15 K, x1 = 0.4099	722.208	–
283.15 K, x1 = 0.4995	–	0.501
283.15 K, x1 = 0.5053	725.756	–
283.15 K, x1 = 0.6005	729.573	–
283.15 K, x1 = 0.6099	–	0.483
283.15 K, x1 = 0.6934	733.719	–
283.15 K, x1 = 0.7072	–	0.462
283.15 K, x1 = 0.7967	738.766	–
283.15 K, x1 = 0.7981	–	0.435
283.15 K, x1 = 0.8941	–	0.417
283.15 K, x1 = 0.8975	744.471	–
288.15 K, x1 = 0.1019	–	0.559
288.15 K, x1 = 0.1059	708.972	–
288.15 K, x1 = 0.2123	711.779	–
288.15 K, x1 = 0.2189	–	0.533
288.15 K, x1 = 0.3019	714.403	–
288.15 K, x1 = 0.3026	–	0.514
288.15 K, x1 = 0.4029	–	0.492
288.15 K, x1 = 0.4099	717.859	–
288.15 K, x1 = 0.4995	–	0.471
288.15 K, x1 = 0.5053	721.306	–
288.15 K, x1 = 0.6005	725.009	–
288.15 K, x1 = 0.6099	–	0.454
288.15 K, x1 = 0.6934	729.044	–
288.15 K, x1 = 0.7072	–	0.435
288.15 K, x1 = 0.7967	733.942	–
288.15 K, x1 = 0.7981	–	0.41
288.15 K, x1 = 0.8941	–	0.393
288.15 K, x1 = 0.8975	739.489	–
293.15 K, x1 = 0.1019	–	0.525
293.15 K, x1 = 0.1059	704.884	–
293.15 K, x1 = 0.2123	707.601	–
293.15 K, x1 = 0.2189	–	0.501
293.15 K, x1 = 0.3019	710.139	–
293.15 K, x1 = 0.3026	–	0.483
293.15 K, x1 = 0.4029	–	0.464
293.15 K, x1 = 0.4099	713.488	–
293.15 K, x1 = 0.4995	–	0.445
293.15 K, x1 = 0.5053	716.833	–
293.15 K, x1 = 0.6005	720.419	–
293.15 K, x1 = 0.6099	–	0.428
293.15 K, x1 = 0.6934	724.332	–
293.15 K, x1 = 0.7072	–	0.411
293.15 K, x1 = 0.7967	729.066	–
293.15 K, x1 = 0.7981	–	0.388
293.15 K, x1 = 0.8941	–	0.372
293.15 K, x1 = 0.8975	734.467	–
298.15 K, x1 = 0.1019	–	0.495
298.15 K, x1 = 0.1059	700.768	–
298.15 K, x1 = 0.2123	703.393	–
298.15 K, x1 = 0.2189	–	0.473
298.15 K, x1 = 0.3019	705.856	–
298.15 K, x1 = 0.3026	–	0.455
298.15 K, x1 = 0.4029	–	0.439
298.15 K, x1 = 0.4099	709.092	–
298.15 K, x1 = 0.4995	–	0.42
298.15 K, x1 = 0.5053	712.324	–
298.15 K, x1 = 0.6005	715.799	–
298.15 K, x1 = 0.6099	–	0.405
298.15 K, x1 = 0.6934	719.586	–
298.15 K, x1 = 0.7072	–	0.388
298.15 K, x1 = 0.7967	724.172	–
298.15 K, x1 = 0.7981	–	0.367
